{"source": "ChEMBL document CHEMBL6153034", "about": "“Synthesis of dolutegravir derivatives modified by 1,2,3-triazole structure and their anti-inflammatory activity in LPS-induced BV2 cells” (Bioorg Med Chem Lett, 2025)", "key": {"[1]": {"assay": "Acute toxicity in female Kunming mouse assessed as histopathological changes in heart at 250 mg/kg administered via gavage by H and E staining based analysis", "assay_type": "organism-based", "conditions": "in vivo, po"}, "[2]": {"assay": "Acute toxicity in male Kunming mouse assessed as histopathological changes in lung at 250 mg/kg administered via gavage by H and E staining based analysis", "assay_type": "organism-based", "conditions": "in vivo, po"}, "[3]": {"assay": "Acute toxicity in male Kunming mouse assessed as histopathological changes in kidney at 250 mg/kg administered via gavage by H and E staining based analysis", "assay_type": "organism-based", "conditions": "in vivo, po"}, "[4]": {"assay": "Acute toxicity in male Kunming mouse assessed as histopathological changes in spleen at 250 mg/kg administered via gavage by H and E staining based analysis", "assay_type": "organism-based", "conditions": "in vivo, po"}, "[5]": {"assay": "Acute toxicity in male Kunming mouse assessed as histopathological changes in liver at 250 mg/kg administered via gavage by H and E staining based analysis", "assay_type": "organism-based", "conditions": "in vivo, po"}, "[6]": {"assay": "Cytotoxicity against mouse BV-2 cells assessed as cell viability at 1 uM by MTT assay relative to control", "assay_type": "toxicity, cell-based", "conditions": "read-out: Activity"}, "[7]": {"assay": "Cytotoxicity against mouse BV-2 cells assessed as cell viability at 10 uM by MTT assay relative to control", "assay_type": "toxicity, cell-based", "conditions": "read-out: Activity"}, "BV-2 [8]": {"tested_on": "BV-2", "assay": "Antiinflammatory activity in LPS induced mouse BV-2 cells assessed as inhibition of NO production by Griess reagent based assay", "assay_type": "functional, cell-based"}, "BV-2 [9]": {"tested_on": "BV-2", "assay": "Antiinflammatory activity in LPS induced mouse BV-2 cells assessed as downregulation of TNF-alpha mRNA expression level preincubated for 2 hrs followed by LPS addition and measured after 24 hrs by qRT-PCR analysis", "assay_type": "functional, cell-based", "conditions": "dose 5-10 µM, time 26.0 hrs"}, "BV-2 [10]": {"tested_on": "BV-2", "assay": "Antiinflammatory activity in LPS induced mouse BV-2 cells assessed as downregulation of IL-6 mRNA expression level preincubated for 2 hrs followed by LPS addition and measured after 24 hrs by qRT-PCR analysis", "assay_type": "functional, cell-based", "conditions": "dose 5-10 µM, time 26.0 hrs"}, "BV-2 [11]": {"tested_on": "BV-2", "assay": "Antiinflammatory activity in LPS induced mouse BV-2 cells assessed as downregulation of IL-1beta mRNA expression level preincubated for 2 hrs followed by LPS addition and measured after 24 hrs by qRT-PCR analysis", "assay_type": "functional, cell-based", "conditions": "dose 5-10 µM, time 26.0 hrs"}, "BV-2 [12]": {"tested_on": "BV-2", "assay": "Antiinflammatory activity in LPS-induced mouse BV-2 cells assessed as decrease in IL-6 production preincubated for 2 hrs followed by LPS addition and measured after 24 hrs by qRT-PCR analysis", "assay_type": "functional, cell-based", "conditions": "dose 5-10 µM, time 26.0 hrs"}, "BV-2 [13]": {"tested_on": "BV-2", "assay": "Antiinflammatory activity in LPS-induced mouse BV-2 cells assessed as reduction in NO production preincubated for 2 hrs followed by LPS addition and measured after 24 hrs by Griess reagent based analysis", "assay_type": "functional, cell-based", "conditions": "dose 5-10 µM, time 26.0 hrs"}, "BV-2 [14]": {"tested_on": "BV-2", "assay": "Antiinflammatory activity in LPS-induced mouse BV-2 cells assessed as downregulation of iNOS mRNA expression level at 5 to 10 uM preincubated for 2 hrs followed by LPS addition and measured after 6 hrs by qRT-PCR analysis", "assay_type": "functional, cell-based", "conditions": "dose 5-10 µM, time 8.0 hrs"}, "BV-2 [15]": {"tested_on": "BV-2", "assay": "Antiinflammatory activity in LPS-induced mouse BV-2 cells assessed as downregulation of COX2 mRNA expression level at 5 to 10 uM preincubated for 2 hrs followed by LPS addition and measured after 6 hrs by qRT-PCR analysis", "assay_type": "functional, cell-based", "conditions": "dose 5-10 µM, time 8.0 hrs"}, "BV-2 [16]": {"tested_on": "BV-2", "assay": "Antiinflammatory activity in LPS-induced mouse BV-2 cells assessed as downregulation of COX-2 protein expression level preincubated for 2 hrs followed by LPS addition and measured after 24 hrs by Western blot analysis", "assay_type": "functional, cell-based", "conditions": "dose 5-10 µM, time 26.0 hrs"}, "[17]": {"molecular_target": "Signal transducer and activator of transcription 3 (Mus musculus) (UniProt P42227)", "sequence (P42227 whole entry)": "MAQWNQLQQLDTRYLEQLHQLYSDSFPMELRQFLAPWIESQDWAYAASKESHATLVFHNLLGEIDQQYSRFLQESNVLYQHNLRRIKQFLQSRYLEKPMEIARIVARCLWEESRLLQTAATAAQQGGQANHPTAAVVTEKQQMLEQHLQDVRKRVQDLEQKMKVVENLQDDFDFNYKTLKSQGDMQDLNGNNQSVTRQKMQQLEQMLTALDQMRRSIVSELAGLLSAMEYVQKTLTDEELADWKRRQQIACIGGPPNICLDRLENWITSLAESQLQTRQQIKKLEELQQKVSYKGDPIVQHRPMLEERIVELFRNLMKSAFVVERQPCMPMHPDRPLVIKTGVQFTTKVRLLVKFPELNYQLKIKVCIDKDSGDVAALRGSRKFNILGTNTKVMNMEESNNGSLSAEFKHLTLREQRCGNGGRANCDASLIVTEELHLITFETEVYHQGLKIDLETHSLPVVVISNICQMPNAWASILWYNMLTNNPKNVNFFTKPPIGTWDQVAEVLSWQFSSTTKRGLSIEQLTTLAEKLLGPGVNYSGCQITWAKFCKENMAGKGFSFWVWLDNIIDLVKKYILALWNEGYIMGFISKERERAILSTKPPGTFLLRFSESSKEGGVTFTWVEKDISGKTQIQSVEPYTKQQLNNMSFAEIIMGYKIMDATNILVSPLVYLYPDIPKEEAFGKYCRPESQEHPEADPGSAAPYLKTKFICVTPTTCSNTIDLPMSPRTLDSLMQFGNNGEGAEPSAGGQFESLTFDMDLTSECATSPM", "assay": "Inhibition of STAT3 phosphorylation at Tyr705 residue in LPS-induced mouse BV-2 cells at 5 to 10 uM preincubated for 2 hrs followed by LPS addition and measured after 3 hrs by Western blot analysis", "assay_type": "cell-based", "conditions": "dose 5-10 µM, time 5.0 hrs"}, "BV-2 [18]": {"tested_on": "BV-2", "assay": "Inhibition of LPS-induced nuclear translocation of p-STAT1 in mouse BV-2 cells at 10 uM preincubated for 2 hrs followed LPS addition and measured after 3 hrs by DAPI staining based immunofluorescence assay", "assay_type": "functional, cell-based", "conditions": "time 5.0 hrs"}, "BV-2 [19]": {"tested_on": "BV-2", "assay": "Inhibition of LPS-induced nuclear translocation of p-STAT3 in mouse BV-2 cells at 10 uM preincubated for 2 hrs followed LPS addition and measured after 3 hrs by Western blot analysis", "assay_type": "functional, cell-based", "conditions": "time 5.0 hrs"}, "[20]": {"assay": "Acute toxicity in female Kunming mouse assessed as effect on body weight at 250 mg/kg administered via gavage for 14 days", "assay_type": "organism-based", "conditions": "in vivo, po, 336 h, time 14 day"}, "[21]": {"assay": "Acute toxicity in male Kunming mouse assessed as effect on body weight at 250 mg/kg administered via gavage for 14 days", "assay_type": "organism-based", "conditions": "in vivo, po, 336 h, time 14 day"}, "[22]": {"assay": "Acute toxicity in male Kunming mouse assessed as effect on organ coefficient of heart at 250 mg/kg administered via gavage", "assay_type": "organism-based", "conditions": "in vivo, po"}, "[23]": {"assay": "Acute toxicity in male Kunming mouse assessed as effect on organ coefficient of lung at 250 mg/kg administered via gavage", "assay_type": "organism-based", "conditions": "in vivo, po"}, "[24]": {"assay": "Acute toxicity in female Kunming mouse assessed as effect on organ coefficient of heart at 250 mg/kg administered via gavage", "assay_type": "organism-based", "conditions": "in vivo, po"}, "[25]": {"assay": "Acute toxicity in female Kunming mouse assessed as effect on organ coefficient of spleen at 250 mg/kg administered via gavage", "assay_type": "organism-based", "conditions": "in vivo, po"}, "[26]": {"assay": "Acute toxicity in female Kunming mouse assessed as effect on organ coefficient of lung at 250 mg/kg administered via gavage", "assay_type": "organism-based", "conditions": "in vivo, po"}, "[27]": {"assay": "Acute toxicity in female Kunming mouse assessed as effect on organ coefficient of kidney at 250 mg/kg administered via gavage", "assay_type": "organism-based", "conditions": "in vivo, po"}, "[28]": {"assay": "Acute toxicity in female Kunming mouse assessed as effect on organ coefficient of liver at 250 mg/kg administered via gavage", "assay_type": "organism-based", "conditions": "in vivo, po"}, "[29]": {"assay": "Acute toxicity in male Kunming mouse assessed as histopathological changes in heart at 250 mg/kg administered via gavage by H and E staining based analysis", "assay_type": "organism-based", "conditions": "in vivo, po"}, "[30]": {"assay": "Acute toxicity in female Kunming mouse assessed as histopathological changes in liver at 250 mg/kg administered via gavage by H and E staining based analysis", "assay_type": "organism-based", "conditions": "in vivo, po"}, "[31]": {"assay": "Acute toxicity in female Kunming mouse assessed as histopathological changes in spleen at 250 mg/kg administered via gavage by H and E staining based analysis", "assay_type": "organism-based", "conditions": "in vivo, po"}, "[32]": {"assay": "Acute toxicity in female Kunming mouse assessed as histopathological changes in lung at 250 mg/kg administered via gavage by H and E staining based analysis", "assay_type": "organism-based", "conditions": "in vivo, po"}, "[33]": {"assay": "Acute toxicity in female Kunming mouse assessed as histopathological changes in kidney at 250 mg/kg administered via gavage by H and E staining based analysis", "assay_type": "organism-based", "conditions": "in vivo, po"}, "[34]": {"assay": "Acute toxicity in female Kunming mouse assessed as effect on GPT level in blood at 250 mg/kg administered via gavage by biochemical analysis", "assay_type": "organism-based", "conditions": "in vivo, po"}, "[35]": {"assay": "Acute toxicity in female Kunming mouse assessed as effect on GOT level in blood at 250 mg/kg administered via gavage by biochemical analysis", "assay_type": "organism-based", "conditions": "in vivo, po"}, "[36]": {"assay": "Acute toxicity in male Kunming mouse assessed as increase in GPT level in blood at 250 mg/kg administered via gavage by biochemical analysis", "assay_type": "organism-based", "conditions": "in vivo, po"}, "BV-2 [37]": {"tested_on": "BV-2", "assay": "Antiinflammatory activity in LPS induced mouse BV-2 cells assessed as NO production at 1 uM by Griess reagent based assay relative to control"}, "BV-2 [38]": {"tested_on": "BV-2", "assay": "Antiinflammatory activity in LPS induced mouse BV-2 cells assessed as NO production at 10 uM by Griess reagent based assay relative to control"}}, "note": "The source made the active and inactive calls. No cut-off for these calls is given here.", "data": [{"compound": "COc1c2n(cc(C(=O)Nc3cccc(-c4cn(-c5ccccc5Cl)nn4)c3)c1=O)C[C@@H]1OCC[C@@H](C)N1C2=O", "values": [{"measurement": "Activity", "setting": "[1]", "value": "Non-toxic"}, {"measurement": "Activity", "setting": "[2]", "value": "Non-toxic"}, {"measurement": "Activity", "setting": "[3]", "value": "Non-toxic"}, {"measurement": "Activity", "setting": "[4]", "value": "Non-toxic"}, {"measurement": "Activity", "setting": "[5]", "value": "Non-toxic"}, {"measurement": "viability at 1 µM", "setting": "[6]", "value": 88, "unit": "%"}, {"measurement": "viability at 10 µM", "setting": "[7]", "value": 86.7, "unit": "%"}, {"measurement": "IC50", "setting": "BV-2 [8]", "value": 4.45, "unit": "µM"}, {"measurement": "Activity", "setting": "BV-2 [9]", "value": "Dose-dependent-effect"}, {"measurement": "Activity", "setting": "BV-2 [10]", "value": "Dose-dependent-effect"}, {"measurement": "Activity", "setting": "BV-2 [11]", "value": "Dose-dependent-effect"}, {"measurement": "Activity", "setting": "BV-2 [12]", "value": "Dose-dependent-effect"}, {"measurement": "Activity", "setting": "BV-2 [13]", "value": "Dose-dependent-effect"}, {"measurement": "Activity", "setting": "BV-2 [14]", "value": "Active"}, {"measurement": "Activity", "setting": "BV-2 [15]", "value": "Active"}, {"measurement": "Activity", "setting": "BV-2 [16]", "value": "Dose-dependent-effect"}, {"measurement": "inhibition", "setting": "[17]", "value": "Active"}, {"measurement": "inhibition", "setting": "BV-2 [18]", "value": "Active"}, {"measurement": "inhibition", "setting": "BV-2 [19]", "value": "Active"}, {"measurement": "Activity", "setting": "[20]", "value": "Non-toxic"}, {"measurement": "Activity", "setting": "[21]", "value": "Non-toxic"}, {"measurement": "Activity", "setting": "[22]", "value": "Non-toxic"}, {"measurement": "Activity", "setting": "[23]", "value": "Non-toxic"}, {"measurement": "Activity", "setting": "[24]", "value": "Non-toxic"}, {"measurement": "Activity", "setting": "[25]", "value": "Non-toxic"}, {"measurement": "Activity", "setting": "[26]", "value": "Non-toxic"}, {"measurement": "Activity", "setting": "[27]", "value": "Non-toxic"}, {"measurement": "Activity", "setting": "[28]", "value": "Non-toxic"}, {"measurement": "Activity", "setting": "[29]", "value": "Non-toxic"}, {"measurement": "Activity", "setting": "[30]", "value": "Non-toxic"}, {"measurement": "Activity", "setting": "[31]", "value": "Non-toxic"}, {"measurement": "Activity", "setting": "[32]", "value": "Non-toxic"}, {"measurement": "Activity", "setting": "[33]", "value": "Non-toxic"}, {"measurement": "Activity", "setting": "[34]", "value": "Non-toxic"}, {"measurement": "Activity", "setting": "[35]", "value": "Non-toxic"}, {"measurement": "Activity", "setting": "[36]", "value": "Toxic"}, {"measurement": "level, % of control at 1 µM", "setting": "BV-2 [37]", "value": 71, "unit": "%"}, {"measurement": "level, % of control at 10 µM", "setting": "BV-2 [38]", "value": 43, "unit": "%"}]}]}
